This note sets out measurements from patent US4871774A, “Medical treatment” (The Boots Company PLC, priority 1987, dated 1989).

Where “and” joins values, the source holds several entries; their conditions need not be identical. Identical values can stand only once.

Test [1] has as its system dopamine reuptake; unilateral nigrostriatal lesioned rats. As to the kind of experiment: Ipsilateral circling behaviour of unilateral nigrostriatal (6-OHDA) lesioned rats. In kind it is in vivo, rat (CD). The conditions noted are these: 30 mg/kg oral. An excerpt:
The two tracts of the nigrostriatal dopamine system are independent and are located on either side of the midline of the brain. When one tract is destroyed using the specific neurotoxin, 6-hydroxydopamine (6-OHDA), rats will display characteristic circling behaviour after injection of dopaminergic drugs. The direction of rotation, however, is dependent on the stimulus employed. Drugs which inhibit dopamine reuptake can only function on the unlesioned side of the brain and induce circling towards the lesion site (known as ipsilateral circling.)
Male CD rats (250-300 g: Charles River) were anaesthetised with `Equithesin` type anaesthetic (3.2 ml/kg i.p.) and secured in a stereotaxic frame (David Kopf Small Animal Stereotaxic Instrument DKI 900). After shaving the area, a saggital incision of 1.5-2 cm was made and skin flaps dissected from the skull. A small hole was made in the skull, using a No. 6 dental burr, to allow the tip of a 30 s.w.g. stainless steel cannula to be inserted to the left substantia nigra. This was located by using the following co-ordinates, using skull landmark bregma as the zero reference point; rostral-caudal -2.8; medial-lateral +2.0; dorsal-ventral -8.0 from the surface of the dura, all co-ordinates measured in millimetres. This system of co-ordinates is a modification of the de Groot system as described by Pellegrino et al (A stereotaxic atlas of the rat brain, 2nd Edition, Plenum Press 1979). 6-Hydroxydopamine HBr (2 μg/μl, as base: Sigma Chemical Co.) was injected into the left substantia nigra at 1 μl/min; a total of 8 μg was administered over a period of 4 minutes using an infusion pump (Braun `Perfusor` ED2). After removal of the cannula, the skin flaps were joined with a single everted suture and the animal allowed to recover.
After 21 days, the circling behaviour of the rats was examined. They were placed, individually, in circular plastic arenas (30 cm diameter×12 cm high) for 1 hour, with no access to food or water during this period. […] One `turn` consisted of rotation through 360° in either direction. As rats were always lesioned on the left side of the brain, anticlockwise turns were ipsilateral.
Control values were determined for all rats by observing their spontaneous circling behaviour in the arenas without prior dosing. The mean turns per minute was always less than 1.
The rats were challenged with an intraperitoneal dose of methamphetamine (2 mg/kg) and immediately placed in the arenas. In these experiments circling behaviour was monitored during two periods, 0-1 h and 4-5 h after dosing. Rats giving a mean of more than 5 ipsilateral turns per minute during the first hour in response to methamphetamine were used in subsequent tests. Following selection, the rats were used in groups of 5 or more rats to test the drug under investigation.

The test system of test [2] is uptake of radiolabelled dopamine into rat striatal synaptosomes. As to the kind of experiment: Inhibition of dopamine uptake in vitro by plasma from drug treated rats (3H-dopamine, rat striatal synaptosomes). The format is biochemical, rat (CD, Sprague-Dawley). The conditions noted are these: for % Inhibition of dopamine uptake in Individual Rats: hydrochloride monohydrate; for % Inhibition of dopamine uptake, Mean (±SEM): mean of 4 rats. The procedure: (3) Inhibition of dopamine uptake in vitro by plasma from drug treated rats
To obtain the synaptosomes, untreated male CD rats (Sprague-Dawley 200-250 g; Charles River) were killed by cervical dislocation, the brains removed and the striata of two or three rats dissected out and placed in ice-cold saline. The pooled tissue was homogenised in 20 volumes of ice-cold 0.32M sucrose in a glass-teflon homogeniser with 0.35 mm clearance. The homogenate was spun at 1500×g for 10 minutes in a refrigerated (4° C.) Heraeus Christ minicentrifuge. The supernatant was transferred into a polypropylene sterilin tube and stored on ice for as short a time as possible prior to use in the radiolabelled dopamine uptake assay.
Control rats were orally administered distilled water. After one hour the rats were killed by CO2 inhalation overdose, the chest cavity opened and blood immediately removed from the heart and mixed with an anticoagulant solution.
The rat blood/anticoagulant mixture was spun at 5750×g for 20 minutes in a Heraeus Christ minicentrifuge at room temperature. The plasma was removed and kept at room temperature for as short a time as possible before analysis in the radiolabelled dopamine uptake assay. The fresh plasma samples from the rat study were initially maintained at 37° C. for 10-15 minutes before starting the assay. 300 μl of each plasma sample was added to six 5 ml polypropylene tubes already containing 50 μl of saline at room temperature. Four of these tubes were incubated at 37° C. to assess active radiolabelled dopamine uptake. The other two tubes were immediately cooled to c.3° C. and maintained at this temperature to account for passive radiolabelled dopamine uptake.
(a) Active uptake of radiolabelled dopamine
To each tube at 37° C. was added 100 μl of fresh striatal synaptosomes, prepared as above. These tubes were then agitated in the water bath at 37° C. for 5 minutes prior to the addition of 50 μl ice-cold ^3 H-dopamine solution (final concentration 1×10^-7 M) (Amersham International). The reaction was stopped after a further 5 minutes of agitation and incubation at 37° C. by removing the tubes from the water bath and immediately adding 4 ml of ice-cold saline. The contents of the tube were then rapidly filtered over Whatman glass fibre (GF/F) filters supported on a Millipore 1225 manifold linked to an Edwards 2-stage vacuum pump. The tubes were rinsed with 2×4 ml of ice-cold saline and this was also rapidly filtered. Finally, each manifold well was washed with 4 ml of ice-cold saline.
(b) Passive uptake of radiolabelled dopamine
To the two tubes maintained at c.3° C. was added 100 μl of fresh striatal synaptosomes followed by 50 μl of ice-cold ^3 H-dopamine solution (final concentration 1×10^-7 M). The "reaction" in these tubes was terminated by the addition of 4 ml ice-cold saline and the samples were then rapidly filtered and washed as described in (a) above.
All filters were placed into glass vials and 10 ml of Packard ES-299 scintillation fluid added. Filters were allowed to solubilise for at least 1 hour before the radioactivity accumulated was assayed by liquid scintillation counting.
(c) Calculation of percentage inhibition of ^3 H-dopamine uptake
The amount of passive uptake of ^3 H-dopamine at c.3° C. (measured in cpm) was subtracted from the amount of active ^3 H-dopamine uptake at 37° C. (measured in cpm) to derive net ^3 H-dopamine uptake. The resulting value was then expressed as a percentage (X) of the net ^3 H-dopamine uptake recorded for control plasma. The latter plasma samples were obtained from distilled water-treated control rats. The percentage inhibition value (X) was calculated using the following formula: [formula]
Mean [±1 standard error of the mean (SEM)] percentage inhibition was then determined for each dose.

Where [3] appears, read: plasma 1 h after 100 mg/kg oral.

Take `CC(C)CC(N(C)C)C1(c2ccc(Cl)cc2)CCC1.Cl.O` (stereo not shown) [N,N-dimethyl-1-[1-(4-chlorophenyl)cyclobutyl]-3-methylbutylamine hydrochloride monohydrate]: the “duration of action as an inhibitor of dopamine reuptake (in words)” value in test [1] is “long lasting action as an inhibitor of dopamine reuptake”. The “ipsilateral turns/min (Mean ± SEM)” value in test [1] (0-1 hrs after dosing) is recorded as 3.0 ± 0.6 turns/min; in test [1] (4-5 hrs after dosing) it was 6.7 ± 1.4 turns/min; in test [1] (8-9 hrs after dosing) it was 8.6 ± 1.8 turns/min; in test [1] (24-25 hrs after dosing) it was 6.2 ± 1.7 turns/min; in test [1] (48-49 hrs after dosing) it was 1.7 ± 0.5 turns/min. In addition, the “% Inhibition of dopamine uptake in Individual Rats” value in test [2] (plasma 1 h after 10 mg/kg oral) is 33% and 23% and 13% and 17%; in test [2] (plasma 1 h after 30 mg/kg oral), 54% and 35% and 49% and 42%; in test [2] (setting [3]), 53% and 59% and 67% and 55%. Further, the “% Inhibition of dopamine uptake, Mean (±SEM)” value in test [2] (plasma 1 h after 10 mg/kg oral) is 22.8 ± 5.5%; in test [2] (plasma 1 h after 30 mg/kg oral) it was 45.0 ± 4.1%; in test [2] (setting [3]), 58.5 ± 3.1%. The “inhibition of radiolabelled dopamine uptake (in words)” value in test [2] (plasma from rats, 10, 30 or 100 mg/kg oral) is “dose-dependent inhibition of radiolabelled dopamine uptake”.
